Data on 35 substances can be found in patent publication US8969516B2, “Method of hydrolysis of peptide bond” (priority 2006, dated 2015).

This series can be described thus: MALDI-TOF screening of Ni^2+ dependent hydrolysis in a combinatorial peptide library. The format is physicochemical. Particulars: Ni^2+ 2 mM, pH 8.2, 10 mM Tris, score=24/tm. Put shortly: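 The screen used 1 mM peptide mixtures in 10 mM Tris, pH 8.2, with 2 mM Ni2+ at two temperatures, 37 °C and 45 °C. Product appearance and substrate decline were monitored visually by MALDI-TOF over 8 h. Scores for X and Z were then summed by row and column to rank substitutions.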

Where [1] appears, read: CH3CO-Gly-Ala-Thr-X-His-Z-Lys-Phe-Leu-NH2 library, 37° C.
Setting [2] is: CH3CO-Gly-Ala-Thr-X-His-Z-Lys-Phe-Leu-NH2 library, 45° C.
[3] abbreviates: CH3CO-Gly-Ala-Ser-X-His-Z-Lys-Phe-Leu-NH2 library, 37° C.
[4] abbreviates: CH3CO-Gly-Ala-Ser-X-His-Z-Lys-Phe-Leu-NH2 library, 45° C.

Regarding Ac-GATGHHKFL-NH2 [TGHH], the “hydrolysis score from MALDI-TOF screening” value (shortened to “hydrolysis score”) is given as 0 (a score of 0 if no trace of the product of hydrolysis was seen after 8 hours of incubation) under setting [1] and 0 (a score of 0 if no trace of the product of hydrolysis was seen after 8 hours of incubation) under setting [2].

Regarding Ac-GATQHYKFL-NH2 [TQHY], the “hydrolysis score” value is, setting by setting: under setting [1], 0 (a score of 0 if no trace of the product of hydrolysis was seen after 8 hours of incubation); under setting [2], 0 (a score of 0 if no trace of the product of hydrolysis was seen after 8 hours of incubation).

For the substance Ac-GATGHSKFL-NH2 [TGHS], the “hydrolysis score” value is, setting by setting: under setting [1], 0 (a score of 0 if no trace of the product of hydrolysis was seen after 8 hours of incubation); under setting [2], 0 (a score of 0 if no trace of the product of hydrolysis was seen after 8 hours of incubation).

Turning to Ac-GATLHHKFL-NH2 [TLHH], the “hydrolysis score” value under setting [1] is given as 0 (a score of 0 if no trace of the product of hydrolysis was seen after 8 hours of incubation) and the “hydrolysis score” value under setting [2] was 0 (a score of 0 if no trace of the product of hydrolysis was seen after 8 hours of incubation).

As to Ac-GASWHTKFL-NH2 [SWHT], the “hydrolysis score” value reads like this: under setting [3], 0 (a score of 0 if no trace of the product of hydrolysis was seen after 8 hours of incubation); under setting [4], 0 (a score of 0 if no trace of the product of hydrolysis was seen after 8 hours of incubation).

For Ac-GASIHMKFL-NH2 [SIHM], the “hydrolysis score” value is 0 (a score of 0 if no trace of the product of hydrolysis was seen after 8 hours of incubation) under setting [3] and 0 (a score of 0 if no trace of the product of hydrolysis was seen after 8 hours of incubation) under setting [4].

For the substance Ac-GASLHDKFL-NH2 [SLHD], the “hydrolysis score” value by setting is: under setting [3], 0 (a score of 0 if no trace of the product of hydrolysis was seen after 8 hours of incubation); under setting [4], 0 (a score of 0 if no trace of the product of hydrolysis was seen after 8 hours of incubation).

Take Ac-GATWHMKFL-NH2 [TWHM]: the “hydrolysis score” value under setting [1] is reported as 0 (a score of 0 if no trace of the product of hydrolysis was seen after 8 hours of incubation) and the “hydrolysis score” value under setting [2] is given as 3 (a score of 3 for detection at 8 hours).

On to Ac-GATKHRKFL-NH2 [TKHR], for which the “hydrolysis score” value is listed as 4 (a score of 4 for detection at 6 hours) under setting [1] and 12 (a score of 12, if it was seen to be partially hydrolysed at 2 hours) under setting [2].

As to Ac-GATAHHKFL-NH2 [TAHH], the “hydrolysis score” value runs as follows: under setting [1], 0 (a score of 0 if no trace of the product of hydrolysis was seen after 8 hours of incubation); under setting [2], 0 (a score of 0 if no trace of the product of hydrolysis was seen after 8 hours of incubation).

For Ac-GATPHEKFL-NH2 [TPHE], the “hydrolysis score” value under setting [2] is 0 (a score of 0 if no trace of the product of hydrolysis was seen after 8 hours of incubation).

In the case of Ac-GASMHIKFL-NH2 [SMHI], the “hydrolysis score” value reads like this: under setting [3], 4 (a score of 4 for detection at 6 hours); under setting [4], 12 (a score of 12, if it was seen to be partially hydrolysed at 2 hours).

On to Ac-GASGHQKFL-NH2 [SGHQ], for which the “hydrolysis score” value under setting [3] is reported as 0 (a score of 0 if no trace of the product of hydrolysis was seen after 8 hours of incubation) and the “hydrolysis score” value under setting [4] was 0 (a score of 0 if no trace of the product of hydrolysis was seen after 8 hours of incubation).

Regarding Ac-GATPHRKFL-NH2 [TPHR], under setting [2], the “hydrolysis score” value was 0 (a score of 0 if no trace of the product of hydrolysis was seen after 8 hours of incubation).

For the substance Ac-GASIHGKFL-NH2 [SIHG], the “hydrolysis score” value reads like this: under setting [3], 0 (a score of 0 if no trace of the product of hydrolysis was seen after 8 hours of incubation); under setting [4], 0 (a score of 0 if no trace of the product of hydrolysis was seen after 8 hours of incubation).

With Ac-GATYHQKFL-NH2 [TYHQ], the “hydrolysis score” value by setting is: under setting [1], 0 (a score of 0 if no trace of the product of hydrolysis was seen after 8 hours of incubation); under setting [2], 0 (a score of 0 if no trace of the product of hydrolysis was seen after 8 hours of incubation).

Turning to Ac-GASIHPKFL-NH2 [SIHP], the “hydrolysis score” value is 0 (a score of 0 if no trace of the product of hydrolysis was seen after 8 hours of incubation) under setting [3] and 0 (a score of 0 if no trace of the product of hydrolysis was seen after 8 hours of incubation) under setting [4].

Ac-GATNHDKFL-NH2 [TNHD]: the “hydrolysis score” value under setting [1] is listed as 0 (a score of 0 if no trace of the product of hydrolysis was seen after 8 hours of incubation) and the “hydrolysis score” value under setting [2] is 0 (a score of 0 if no trace of the product of hydrolysis was seen after 8 hours of incubation).

As to Ac-GATTHNKFL-NH2 [TTHN], the “hydrolysis score” value runs as follows: under setting [1], 0 (a score of 0 if no trace of the product of hydrolysis was seen after 8 hours of incubation); under setting [2], 0 (a score of 0 if no trace of the product of hydrolysis was seen after 8 hours of incubation).

Turning to Ac-GASHHMKFL-NH2 [SHHM], the “hydrolysis score” value runs as follows: under setting [3], 0 (a score of 0 if no trace of the product of hydrolysis was seen after 8 hours of incubation); under setting [4], 0 (a score of 0 if no trace of the product of hydrolysis was seen after 8 hours of incubation).

As for Ac-GASMHPKFL-NH2 [SMHP], the “hydrolysis score” value was 0 (a score of 0 if no trace of the product of hydrolysis was seen after 8 hours of incubation) under setting [3] and 0 (a score of 0 if no trace of the product of hydrolysis was seen after 8 hours of incubation) under setting [4].

On to Ac-GASAHMKFL-NH2 [SAHM], for which the “hydrolysis score” value by setting is: under setting [3], 0 (a score of 0 if no trace of the product of hydrolysis was seen after 8 hours of incubation); under setting [4], 0 (a score of 0 if no trace of the product of hydrolysis was seen after 8 hours of incubation).

With Ac-GATQHRKFL-NH2 [TQHR], the “hydrolysis score” value is given as 3 (a score of 3 for detection at 8 hours) under setting [1] and 4 (a score of 4 for detection at 6 hours) under setting [2].

In the case of Ac-GATRHMKFL-NH2 [TRHM], the “hydrolysis score” value by setting is: under setting [1], 3 (a score of 3 for detection at 8 hours); under setting [2], 4 (a score of 4 for detection at 6 hours).

For the substance Ac-GASSHHKFL-NH2 [SSHH], the “hydrolysis score” value by setting is: under setting [3], 0 (a score of 0 if no trace of the product of hydrolysis was seen after 8 hours of incubation); under setting [4], 3 (a score of 3 for detection at 8 hours).

On to Ac-GATKHGKFL-NH2 [TKHG], for which the “hydrolysis score” value by setting is: under setting [1], 0 (a score of 0 if no trace of the product of hydrolysis was seen after 8 hours of incubation); under setting [2], 0 (a score of 0 if no trace of the product of hydrolysis was seen after 8 hours of incubation).

Regarding Ac-GASSHPKFL-NH2 [SSHP], the “hydrolysis score” value runs as follows: under setting [3], 0 (a score of 0 if no trace of the product of hydrolysis was seen after 8 hours of incubation); under setting [4], 0 (a score of 0 if no trace of the product of hydrolysis was seen after 8 hours of incubation).

In the case of Ac-GATNHEKFL-NH2 [TNHE], the “hydrolysis score” value is 0 (a score of 0 if no trace of the product of hydrolysis was seen after 8 hours of incubation) under setting [1] and 0 (a score of 0 if no trace of the product of hydrolysis was seen after 8 hours of incubation) under setting [2].

Regarding Ac-GASHHIKFL-NH2 [SHHI], the “hydrolysis score” value reads like this: under setting [3], 6 (a score of 6 for detection at 4 hours); under setting [4], 6 (a score of 6 for detection at 4 hours).

With Ac-GATVHFKFL-NH2 [TVHF], the “hydrolysis score” value under setting [1] is 0 (a score of 0 if no trace of the product of hydrolysis was seen after 8 hours of incubation) and the “hydrolysis score” value under setting [2] is 0 (a score of 0 if no trace of the product of hydrolysis was seen after 8 hours of incubation).

On to Ac-GATTHEKFL-NH2 [TTHE], for which the “hydrolysis score” value was 0 (a score of 0 if no trace of the product of hydrolysis was seen after 8 hours of incubation) under setting [1] and 0 (a score of 0 if no trace of the product of hydrolysis was seen after 8 hours of incubation) under setting [2].

In the case of Ac-GATKHKKFL-NH2 [TKHK], the “hydrolysis score” value is recorded as 3 (a score of 3 for detection at 8 hours) under setting [1] and 12 (a score of 12, if it was seen to be partially hydrolysed at 2 hours) under setting [2].

As for Ac-GASTHAKFL-NH2 [STHA], the “hydrolysis score” value under setting [3] is given as 0 (a score of 0 if no trace of the product of hydrolysis was seen after 8 hours of incubation) and the “hydrolysis score” value under setting [4] was 0 (a score of 0 if no trace of the product of hydrolysis was seen after 8 hours of incubation).

Ac-GATMHPKFL-NH2 [TMHP]: the “hydrolysis score” value was 0 (a score of 0 if no trace of the product of hydrolysis was seen after 8 hours of incubation) under setting [1] and 0 (a score of 0 if no trace of the product of hydrolysis was seen after 8 hours of incubation) under setting [2].

On to Ac-GASLHVKFL-NH2 [SLHV], for which the “hydrolysis score” value under setting [3] is listed as 0 (a score of 0 if no trace of the product of hydrolysis was seen after 8 hours of incubation) and the “hydrolysis score” value under setting [4] is recorded as 3 (a score of 3 for detection at 8 hours).
